According to patent publication US20240425517A1, “NOVEL COMPOUND FOR DEGRADATION OF TARGET PROTEIN OR POLYPEPTIDE BY POLYUBIQUITINATION” (PRAZER THERAPEUTICS INC., priority 2021, published 2024):
Structures can show the parent of a compound that is named as a salt. Where two headings read alike, the source gives them in different places.

Target: T1, Aurora A proteins (Homo sapiens, UniProt O14965)
T1 construct: endogenous in cells; host or cells: MM.1S
T1 sequence (O14965 1-403): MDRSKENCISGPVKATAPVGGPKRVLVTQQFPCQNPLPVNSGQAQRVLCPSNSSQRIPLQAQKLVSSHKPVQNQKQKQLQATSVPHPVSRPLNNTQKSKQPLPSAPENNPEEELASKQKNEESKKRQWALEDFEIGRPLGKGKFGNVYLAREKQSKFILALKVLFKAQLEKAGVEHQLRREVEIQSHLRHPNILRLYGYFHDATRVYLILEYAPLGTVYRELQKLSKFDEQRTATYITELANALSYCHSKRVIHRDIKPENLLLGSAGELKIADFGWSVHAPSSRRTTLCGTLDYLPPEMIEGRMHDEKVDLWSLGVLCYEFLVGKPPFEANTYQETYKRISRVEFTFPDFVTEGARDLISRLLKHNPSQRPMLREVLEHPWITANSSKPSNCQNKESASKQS
Test: Degradation of Aurora A protein in MM.1S cell lines (Western blot densitometry)
Assay type: cell-based
Details: MM1.S, read-out: Aurora A degrading capacity (%)
Procedure: Specifically, the MM.1S cells were cultured in RPMI-1640 medium containing 10% fetal bovine serum (FBS), 1% penicillin, and streptomycin (100 U/mL), transferred to a 6-well plate, and after 24 hours, the Aurora A degraders were diluted in the RPMI culture medium and cells were treated with 5 μM concentration thereof. After treatment, the cells were incubated in a CO2 incubator for 24 hours. […] After cell culture was completed according to the experimental conditions, the cells were collected and centrifuged at 1,800 rpm for 3 minutes. The cells in the precipitate were lysed with RIPA (25 mM Tris-HCl pH 7.6, 150 mM NaCl, 1% NP-40, 1% sodium deoxycholate, 0.1% SDS, 1× Protease Inhibitor Cocktail), 5× sample buffer was added, and then heated at 100° C. for 15 minutes. The prepared sample was electrophoresed with sodium dodecyl sulfate poly acrylamide gel electrophoresis (SDS-PAGE), and then the proteins in the gel were transferred to a PVDF membrane using Trans-Blot Turbo. The membrane was treated with a 5% bovine serum albumin (BSA) solution and blocked at room temperature for 2 hours, and then Aurora A and R-actin antibodies were diluted in the 5% BSA solution to react with the membrane at 4° C. overnight. After washed with PBST (0.5% Tween20) 5 times, horse radish peroxidase (HRP)-conjugated secondary antibodies were diluted in PBST to react at room temperature for 2 hours, and then washed again with a PBST solution 5 times. After enzyme-substrate reaction was carried out using a HRP substrate, a signal was measured with chemi-doc equipment, and the densitometry of a band corresponding to the Aurora A protein detected in the Preparation Example Compounds was quantitatively analyzed. The case when the degrading capacity of each Aurora A degrader was reduced by less than 40% is indicated as +, the case when the degrading capacity was reduced by 40% to 70% (exclusive of 70) is indicated as ++, the case when the degrading capacity was reduced by 70% or more is indicated as +++ in Tables 20 to 23 below.

[1] = MM.1S cells, 5 μM, 24 hours, Western blot

Row | Aurora A degradation (%) at 5 µM [1] [%] | Compound | Aurora A degradation (%) at 5 µM (24 h) [%]
1 | – | COc1cc(Nc2ncc3c(n2)-c2ccc(Cl)cc2C(c2c(F)cccc2OC)=NC3)ccc1C(=O)Nc1ccc(C#CCN)cc1 [1-1″, N-(4-(3-aminoprop-1-yn-1-yl)phenyl)-4-((9-chloro-7-(2-fluoro-6-methoxyphenyl)-5H-benzo[c]pyrimido[4,5-e]azepin-2-yl)amino)-2-methoxybenzamide trifluoroacetic acid] | > 70
2 | – | COc1cc(Nc2ncc3c(n2)-c2ccc(Cl)cc2C(c2c(F)cccc2OC)=NC3)ccc1C(=O)Nc1cccc(C#CCN)c1 [1-3″, N-(3-(3-aminoprop-1-yn-1-yl)phenyl)-4-((9-chloro-7-(2-fluoro-6-methoxyphenyl)-5H-benzo[c]pyrimido[4,5-e]azepin-2-yl)amino)-2-methoxybenzamide trifluoroacetic acid] | > 70
3 | – | COC(=O)c1ccc(NC(=O)c2ccc(Nc3ncc4c(n3)-c3ccc(Cl)cc3C(c3c(F)cccc3OC)=NC4)cc2OC)cc1C#CCN [3-25″, methyl 2-(3-aminoprop-1-yn-1-yl)-4-(4-((9-chloro-7-(2-fluoro-6-methoxyphenyl)-5H-benzo[c]pyrimido[4,5-e]azepin-2-yl)amino)-2-methoxybenzamido)benzoate trifluoroacetic acid] | < 40
4 | – | COc1cc(Nc2ncc3c(n2)-c2ccc(Cl)cc2C(c2c(F)cccc2OC)=NC3)ccc1C(=O)Nc1ccc(C#CC(N)CO)cc1 (centres unmarked) [3-49″, N-(4-(3-amino-4-hydroxybut-1-yn-1-yl)phenyl)-4-((9-chloro-7-(2-fluoro-6-methoxyphenyl)-5H-benzo[c]pyrimido[4,5-e]azepin-2-yl)amino)-2-methoxybenzamide trifluoroacetic acid] | > 70
5 | – | COc1cc(Nc2ncc3c(n2)-c2ccc(Cl)cc2C(c2c(F)cccc2OC)=NC3)ccc1C(=O)NCC#Cc1ccc(C#CCN)o1 [4-1″, N-(3-(5-(3-aminoprop-1-yn-1-yl)furan-2-yl)prop-2-yn-1-yl)-4-((9-chloro-7-(2-fluoro-6-methoxyphenyl)-5H-benzo[c]pyrimido[4,5-e]azepin-2-yl)amino)-2-methoxybenzamide trifluoroacetic acid] | > 70
6 | – | COc1cc(Nc2ncc3c(n2)-c2ccc(Cl)cc2C(c2c(F)cccc2OC)=NC3)ccc1C(=O)NCCCCCC(=O)Nc1ccc(C#CCN)cc1 [4-165″, N-(6-((4-(3-aminoprop-1-yn-1-yl)phenyl)amino)-6-oxohexyl)-4-((9-chloro-7-(2-fluoro-6-methoxyphenyl)-5H-benzo[c]pyrimido[4,5-e]azepin-2-yl)amino)-2-methoxybenzamide trifluoroacetic acid] | > 70
7 | – | COc1cc(Nc2ncc3c(n2)-c2ccc(Cl)cc2C(c2c(F)cccc2OC)=NC3)ccc1C(=O)NCCCNC(=O)c1ccc(C#CCN)o1 [4-166″, 5-(3-aminoprop-1-yn-1-yl)-N-(3-(4-((9-chloro-7-(2-fluoro-6-methoxyphenyl)-5H-benzo[c]pyrimido[4,5-e]azepin-2-yl)amino)-2-methoxybenzamido)propyl)furan-2-carboxamide trifluoroacetic acid] | < 40
8 | – | COC(=O)c1ccc(NC(=O)CCCNC(=O)c2ccc(Nc3ncc4c(n3)-c3ccc(Cl)cc3C(c3c(F)cccc3OC)=NC4)cc2OC)cc1C#CCN [4-228″, methyl 2-(3-aminoprop-1-yn-1-yl)-4-(4-(4-((9-chloro-7-(2-fluoro-6-methoxyphenyl)-5H-benzo[c]pyrimido[4,5-e]azepin-2-yl)amino)-2-methoxybenzamido)butanamido)benzoate trifluoroacetic acid] | 40 to 70
9 | – | COc1cc(Nc2ncc3c(n2)-c2ccc(Cl)cc2C(c2c(F)cccc2OC)=NC3)ccc1C(=O)NCCCC(=O)Nc1ccc(C#CCN)c(CO)c1 [5-8″, N-(4-((4-(3-aminoprop-1-yn-1-yl)-3-(hydroxymethyl)phenyl)amino)-4-oxobutyl)-4-((9-chloro-7-(2-fluoro-6-methoxyphenyl)-5H-benzo[c]pyrimido[4,5-e]azepin-2-yl)amino)-2-methoxybenzamide trifluoroacetic acid] | < 40
10 | > 70 | COC(=O)c1ccc(C(=O)NCCCNC(=O)c2ccc(Nc3ncc4c(n3)-c3ccc(Cl)cc3C(c3c(F)cccc3OC)=NC4)cc2OC)cc1C#CCN [5-18″, methyl 2-(3-aminoprop-1-yn-1-yl)-4-((3-(4-((9-chloro-7-(2-fluoro-6-methoxyphenyl)-5H-benzo[c]pyrimido[4,5-e]azepin-2-yl)amino)-2-methoxybenzamido)propyl)carbamoyl)benzoate hydrochloride] | –
11 | < 40 | COC(=O)c1ccc(NC(=O)C2CCN(C(=O)c3ccc(Nc4ncc5c(n4)-c4ccc(Cl)cc4C(c4c(F)cccc4OC)=NC5)cc3OC)CC2)cc1C#CCN [5-23″, methyl 2-(3-aminoprop-1-yn-1-yl)-4-(1-(4-((9-chloro-7-(2-fluoro-6-methoxyphenyl)-5H-benzo[c]pyrimido[4,5-e]azepin-2-yl)amino)-2-methoxybenzoyl)piperidine-4-carboxamido)benzoate hydrochloride] | –
12 | – | COC(=O)c1ccc(C#CCNC(=O)C2CCN(C(=O)c3ccc(Nc4ncc5c(n4)-c4ccc(Cl)cc4C(c4c(F)cccc4OC)=NC5)cc3OC)CC2)cc1C#CCN [5-28″, methyl 2-(3-aminoprop-1-yn-1-yl)-4-(3-(1-(4-((9-chloro-7-(2-fluoro-6-methoxyphenyl)-5H-benzo[c]pyrimido[4,5-e]azepin-2-yl)amino)-2-methoxybenzoyl)piperidine-4-carboxamido)prop-1-yn-1-yl)benzoate trifluoroacetic acid] | > 70
13 | – | COC(=O)c1ccc(N2CCN(CC3CCN(C(=O)c4ccc(Nc5ncc6c(n5)-c5ccc(Cl)cc5C(c5c(F)cccc5OC)=NC6)cc4OC)CC3)CC2)cc1C#CCN [5-29″, methyl 2-(3-aminoprop-1-yn-1-yl)-4-(4-((1-(4-((9-chloro-7-(2-fluoro-6-methoxyphenyl)-5H-benzo[c]pyrimido[4,5-e]azepin-2-yl)amino)-2-methoxybenzoyl)piperidin-4-yl)methyl)piperazin-1-yl)benzoate trifluoroacetic acid] | > 70
14 | – | COC(=O)c1ccc(N2CCN(C(=O)CCNC(=O)c3ccc(Nc4ncc5c(n4)-c4ccc(Cl)cc4C(c4c(F)cccc4OC)=NC5)cc3OC)CC2)cc1C#CCN [5-32″, methyl 2-(3-aminoprop-1-yn-1-yl)-4-(4-(3-(4-((9-chloro-7-(2-fluoro-6-methoxyphenyl)-5H-benzo[c]pyrimido[4,5-e]azepin-2-yl)amino)-2-methoxybenzamido)propanoyl)piperazin-1-yl)benzoate trifluoroacetic acid] | 40 to 70
15 | – | COC(=O)c1ccc(NC2CCC(NC(=O)c3ccc(Nc4ncc5c(n4)-c4ccc(Cl)cc4C(c4c(F)cccc4OC)=NC5)cc3OC)CC2)cc1C#CCN (centres unmarked) [5-35″, methyl 2-(3-aminoprop-1-yn-1-yl)-4-((4-(4-((9-chloro-7-(2-fluoro-6-methoxyphenyl)-5H-benzo[c]pyrimido[4,5-e]azepin-2-yl)amino)-2-methoxybenzamido)cyclohexyl)amino)benzoate trifluoroacetic acid] | > 70
16 | – | COC(=O)c1ccc(N2CC3(CN(C(=O)c4ccc(Nc5ncc6c(n5)-c5ccc(Cl)cc5C(c5c(F)cccc5OC)=NC6)cc4OC)C3)C2)cc1C#CCN [5-40″, methyl 2-(3-aminoprop-1-yn-1-yl)-4-(6-(4-((9-chloro-7-(2-fluoro-6-methoxyphenyl)-5H-benzo[c]pyrimido[4,5-e]azepin-2-yl)amino)-2-methoxybenzoyl)-2,6-diazaspiro[3.3]heptan-2-yl)benzoate trifluoroacetic acid] | > 70
17 | – | COc1cc(Nc2ncc3c(n2)-c2ccc(Cl)cc2C(c2c(F)cccc2OC)=NC3)ccc1C(=O)NCCCC(=O)Nc1ccc(-c2cnc(C(F)(F)F)nc2)c(C#CCN)c1 [5-81″, N-(4-((3-(3-aminoprop-1-yn-1-yl)-4-(2-(trifluoromethyl)pyrimidin-5-yl)phenyl)amino)-4-oxobutyl)-4-((9-chloro-7-(2-fluoro-6-methoxyphenyl)-5H-benzo[c]pyrimido[4,5-e]azepin-2-yl)amino)-2-methoxybenzamide trifluoroacetic acid] | > 70
